Each molecule was assayed against IRAK4 (Homo sapiens (Human), UniProt Q9NWZ3) (assay: IRAK4 Inhibition Assay). Details: ATP 500 μM; IRAK4 0.6 nM.
Assay type: biochemical
Method: The assays were performed in U-bottom 384-well plates. The final assay volume was 30 μL prepared from 15 μL additions of enzyme and substrates (fluoresceinated peptide and ATP) and test compounds in assay buffer (20 mM HEPES pH 7.2, 10 mM MgCl2, 0.015% Brij 35 and 4 mM DTT). The reaction was initiated by the combination of IRAK4 with substrates and test compounds. The reaction mixture was incubated at room temperature for 60 min. and terminated by adding 45 μL of 35 mM EDTA to each sample. The reaction mixture was analyzed on the Caliper LABCHIP® 3000 (Caliper, Hopkinton, Mass.) by electrophoretic separation of the fluorescent substrate and phosphorylated product. Inhibition data were calculated by comparison to no enzyme control reactions for 100% inhibition and vehicle-only reactions for 0% inhibition. The final concentrations of reagents in the assays are ATP, 500 μM; FL-IPTSPITTTYFFFKKK peptide 1.5 μM; IRAK4, 0.6 nM; and DMSO, 1.6%.

Sequence of IRAK4 (Q9NWZ3 whole entry): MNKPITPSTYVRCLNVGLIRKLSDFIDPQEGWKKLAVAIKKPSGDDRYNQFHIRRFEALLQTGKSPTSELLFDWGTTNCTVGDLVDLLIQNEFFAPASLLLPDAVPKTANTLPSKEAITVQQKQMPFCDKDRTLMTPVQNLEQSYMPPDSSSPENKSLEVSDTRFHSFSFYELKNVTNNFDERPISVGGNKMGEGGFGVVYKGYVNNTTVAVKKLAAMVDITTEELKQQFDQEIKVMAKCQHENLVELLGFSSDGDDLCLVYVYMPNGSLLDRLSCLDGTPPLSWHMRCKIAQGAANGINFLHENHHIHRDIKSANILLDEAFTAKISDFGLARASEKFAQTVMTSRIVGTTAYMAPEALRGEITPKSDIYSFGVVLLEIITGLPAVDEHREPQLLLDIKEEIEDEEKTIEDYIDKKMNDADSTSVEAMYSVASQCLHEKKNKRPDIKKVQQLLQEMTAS

SMILES | IC50
CC(C)Nc1cc(-c2cnn3cc(Cl)cnc23)ncc1C(=O)N[C@H]1CC[C@H](NC(=O)C(C)(C)O)CC1 [Example 78, 6-(6-chloropyrazolo[1,5-a]pyrimidin-3-yl)-N-((1r,4r)-4-(2-hydroxy-2-methylpropanamido)cyclohexyl)-4-(isopropylamino)nicotinamide] | 29 nM
COC1CCC(O)(CCNC(=O)c2cnc(-c3cnn4cc(Cl)cnc34)cc2NC2COC2)CC1 (centres unmarked) [Example 79, 6-(6-chloropyrazolo[1,5-a]pyrimidin-3-yl)-N-(2-(1-hydroxy-4-methoxycyclohexyl)ethyl)-4-(oxetan-3-ylamino)nicotinamide] | 14 nM
CC[C@H](O)CNc1cc(-c2cnn3cc(Cl)cnc23)ncc1C(=O)NC[C@@H](F)C(C)(C)O [Example 81, 6-(6-chloropyrazolo[1,5-a]pyrimidin-3-yl)-N—((R)-2-fluoro-3-hydroxy-3-methylbutyl)-4-(((S)-2-hydroxybutyl)amino)nicotinamide] | 26 nM
CC(C)(O)[C@H](F)CNC(=O)c1cnc(-c2cnn3cc(Cl)cnc23)cc1NC1CCC(F)C1 (stereo partly drawn) [Example 85, 6-(6-chloropyrazolo[1,5-a]pyrimidin-3-yl)-N—((R)-2-fluoro-3-hydroxy-3-methylbutyl)-4-((3-fluorocyclopentyl)amino)nicotinamide] | 2 nM
CC(C)(O)[C@H](F)CNC(=O)c1cnc(-c2cnn3cc(Cl)cnc23)cc1NC1CCC(F)C1 (stereo partly drawn) [Example 86, 6-(6-chloropyrazolo[1,5-a]pyrimidin-3-yl)-N—((R)-2-fluoro-3-hydroxy-3-methylbutyl)-4-((3-fluorocyclopentyl)amino)nicotinamide] | 4 nM
CNC(=O)[C@H]1CC[C@H](NC(=O)c2cnc(-c3cnn4cc(C#N)cnc34)cc2NC(C)C)CC1 [Example 88, 6-(6-cyanopyrazolo[1,5-a]pyrimidin-3-yl)-4-(isopropylamino)-N-((1r,4r)-4-(methylcarbamoyl)cyclohexyl)nicotinamide] | 34 nM
C[C@H](Nc1cc(-c2cnn3cc(C#N)cnc23)ncc1C(=O)NC[C@@H](F)C(C)(C)O)C(C)(C)O [Example 100, 6-(6-cyanopyrazolo[1,5-a]pyrimidin-3-yl)-N—((R)-2-fluoro-3-hydroxy-3-methylbutyl)-4-(((S)-3-hydroxy-3-methylbutan-2-yl)amino)nicotinamide] | 94 nM
CNC(=O)[C@H]1CC[C@H](NC(=O)c2cnc(-c3cnn4cc(C#N)cnc34)cc2NCC(C)(C)F)CC1 [Example 102, 6-(6-cyanopyrazolo[1,5-a]pyrimidin-3-yl)-4-((2-fluoro-2-methylpropyl)amino)-N-((1r,4r)-4-(methylcarbamoyl)cyclohexyl)nicotinamide] | 80 nM
CC(C)(O)[C@H](F)CNC(=O)c1cnc(-c2cnn3cc(C#N)cnc23)cc1NC1CCCC1O (stereo partly drawn) [Example 103, 6-(6-cyanopyrazolo[1,5-a]pyrimidin-3-yl)-N—((R)-2-fluoro-3-hydroxy-3-methylbutyl)-4-((2-hydroxycyclopentyl)amino)nicotinamide] | 44 nM
CC(C)(O)[C@H](F)CNC(=O)c1cnc(C2=C3N=CC(C#N)C=C3N=N2)cc1N[C@@H]1CCCN(C(=O)CC(F)(F)F)C1 (stereo partly drawn) [Example 108, 6-(6-cyano-6H-pyrazolo[4,3-b]pyridin-3-yl)-N—((R)-2-fluoro-3-hydroxy-3-methylbutyl)-4-(((R)-1-(3,3,3-trifluoropropanoyl)piperidin-3-yl)amino)nicotinamide] | 67 nM
CC(Nc1cc(-c2cnn3cc(C#N)cnc23)ncc1C(=O)NC[C@@H](F)C(C)(C)O)c1cccnc1 (stereo partly drawn) [Example 113, 6-(6-cyanopyrazolo[1,5-a]pyrimidin-3-yl)-N—((R)-2-fluoro-3-hydroxy-3-methylbutyl)-4-((1-(pyridin-3-yl)ethyl)amino)nicotinamide] | 53 nM
CC(C)(O)[C@H](F)CNC(=O)c1cnc(-c2cnn3cc(C#N)cnc23)cc1N[C@@H]1CCN(c2cncnc2)C1 [Example 119, 6-(6-cyanopyrazolo[1,5-a]pyrimidin-3-yl)-N—((R)-2-fluoro-3-hydroxy-3-methylbutyl)-4-(((R)-1-(pyrimidin-5-yl)pyrrolidin-3-yl)amino)nicotinamide] | 9 nM
CC(C)(O)[C@H](F)CNC(=O)c1cnc(-c2cnn3cc(C#N)cnc23)cc1NCC1(O)COC1 [Example 121, (R)-6-(6-cyanopyrazolo[1,5-a]pyrimidin-3-yl)-N-(2-fluoro-3-hydroxy-3-methylbutyl)-4-(((3-hydroxyoxetan-3-yl)methyl)amino)nicotinamide] | 52 nM
CO[C@H]1CC[C@H](NC(=O)c2cnc(-c3cnn4cc(C#N)cnc34)cc2NC2COC2)CC1 [Example 124, 6-(6-cyanopyrazolo[1,5-a]pyrimidin-3-yl)-N-((1r,4r)-4-methoxycyclohexyl)-4-(oxetan-3-ylamino)nicotinamide] | 12 nM
CC[C@H](O)CNc1cc(-c2cnn3cc(C#N)cnc23)ncc1C(=O)NC[C@@H](F)C(C)(C)O [Example 125, 6-(6-cyanopyrazolo[1,5-a]pyrimidin-3-yl)-N—((R)-2-fluoro-3-hydroxy-3-methylbutyl)-4-(((S)-2-hydroxybutyl)amino)nicotinamide] | 56 nM
CC(C)(O)[C@H](F)CNC(=O)c1cnc(-c2cnn3cccnc23)cc1NC1CCOCC1 [Example 126, (R)—N-(2-fluoro-3-hydroxy-3-methylbutyl)-6-(pyrazolo[1,5-a]pyrimidin-3-yl)-4-((tetrahydro-2H-pyran-4-yl)amino)nicotinamide] | 22 nM
CC(C)Nc1cc(-c2cnn3cccnc23)ncc1C(=O)NC[C@@H](F)C(C)(C)O [Example 127, (R)—N-(2-fluoro-3-hydroxy-3-methylbutyl)-4-(isopropylamino)-6-(pyrazolo[1,5-a]pyrimidin-3-yl)nicotinamide] | 81 nM
CC(C)Nc1cc(-c2cnn3cc(C4CC4)cnc23)ncc1C(=O)NC[C@@H](F)C(C)(C)O [Example 128, (R)-6-(6-cyclopropylpyrazolo[1,5-a]pyrimidin-3-yl)-N-(2-fluoro-3-hydroxy-3-methylbutyl)-4-(isopropylamino)nicotinamide] | 75 nM
CC(C)Nc1cc(-c2cnn3cc(F)c(N)nc23)ncc1C(=O)NC[C@@H](F)C(C)(C)O [Example 129, (R)-6-(5-amino-6-fluoropyrazolo[1,5-a]pyrimidin-3-yl)-N-(2-fluoro-3-hydroxy-3-methylbutyl)-4-(isopropylamino)nicotinamide] | 3 nM
CC(C)(O)[C@H](F)CNC(=O)c1cnc(-c2cnc3cccnn23)cc1NC1COC1 [Example 131, (R)—N-(2-fluoro-3-hydroxy-3-methylbutyl)-6-(imidazo[1,2-b]pyridazin-3-yl)-4-(oxetan-3-ylamino)nicotinamide] | 13 nM
CC(C)(O)[C@H](F)CNC(=O)c1cnc(-c2cnc3cccnn23)cc1NC1CCOCC1 [Example 132, (R)—N-(2-fluoro-3-hydroxy-3-methylbutyl)-6-(imidazo[1,2-b]pyridazin-3-yl)-4-((tetrahydro-2H-pyran-4-yl)amino)nicotinamide] | 9 nM
CC(C)(O)[C@H]1CC[C@H](NC(=O)c2cnc(-c3cnc4cccnn34)cc2NC2COC2)CC1 [Example 133, N-((1r,4r)-4-(2-hydroxypropan-2-yl)cyclohexyl)-6-(imidazo[1,2-b]pyridazin-3-yl)-4-(oxetan-3-ylamino)nicotinamide] | 36 nM
C[C@@H](CO)Nc1cc(-c2cnc3cccnn23)ncc1C(=O)NC[C@@H](F)C(C)(C)O [Example 136, N—((R)-2-fluoro-3-hydroxy-3-methylbutyl)-4-(((S)-1-hydroxypropan-2-yl)amino)-6-(imidazo[1,2-b]pyridazin-3-yl)nicotinamide] | 19 nM
C[C@@H](CO)Nc1cc(-c2cnc3cccnn23)ncc1C(=O)NCCC(C)(C)O [Example 137, (S)—N-(3-hydroxy-3-methylbutyl)-4-((1-hydroxypropan-2-yl)amino)-6-(imidazo[1,2-b]pyridazin-3-yl)nicotinamide] | 75 nM
CC(C)(O)CNc1cc(-c2cnc3cccnn23)ncc1C(=O)NC[C@@H](F)C(C)(C)O [Example 138, (R)—N-(2-fluoro-3-hydroxy-3-methylbutyl)-4-((2-hydroxy-2-methylpropyl)amino)-6-(imidazo[1,2-b]pyridazin-3-yl)nicotinamide] | 62 nM
CC(C)Nc1cc(-c2cnc3ccc(NCCO)nn23)ncc1C(=O)NC[C@@H](F)C(C)(C)O [Example 139, (R)—N-(2-fluoro-3-hydroxy-3-methylbutyl)-6-(6-((2-hydroxyethyl)amino)imidazo[1,2-b]pyridazin-3-yl)-4-(isopropylamino)nicotinamide] | 3 nM
CC(C)(O)[C@H](F)CNC(=O)c1cnc(-c2cnc3ccc(NCCO)nn23)cc1NC1COC1 [Example 140, (R)—N-(2-fluoro-3-hydroxy-3-methylbutyl)-6-(6-((2-hydroxyethyl)amino)imidazo[1,2-b]pyridazin-3-yl)-4-(oxetan-3-ylamino)nicotinamide] | 6 nM
COc1ccc2ncc(-c3cc(NC(C)C)c(C(=O)NC[C@@H](F)C(C)(C)O)cn3)n2n1 [Example 149, (R)—N-(2-fluoro-3-hydroxy-3-methylbutyl)-4-(isopropylamino)-6-(6-methoxyimidazo[1,2-b]pyridazin-3-yl) nicotinamide] | 18 nM
CC(C)Nc1cc(-c2cnc3ccc(N)nn23)ncc1C(=O)NC[C@@H](F)C(C)(C)O [Example 150, (R)-6-(6-aminoimidazo[1,2-b]pyridazin-3-yl)-N-(2-fluoro-3-hydroxy-3-methylbutyl)-4-(isopropylamino)nicotinamide] | 12 nM
